Reference: ChEMBL document CHEMBL5244271, “Targeted Drugs for Treatment of Pulmonary Arterial Hypertension: Past, Present, and Future Perspectives” (J Med Chem, 2020)

Experiments:
[1] = Activation of rabbit sGC assessed as induction of preconstricted aortic ring relaxation; conditions: Oryctolagus cuniculus
[2] = Tmax in human; type: ADME
[3] = Half life in human; type: ADME
[4] = target: T1, Endothelin receptor type B (Homo sapiens, UniProt P24530); experiment: Binding affinity to human placenta ETB; type: tissue-based
T1 sequence (P24530 whole entry): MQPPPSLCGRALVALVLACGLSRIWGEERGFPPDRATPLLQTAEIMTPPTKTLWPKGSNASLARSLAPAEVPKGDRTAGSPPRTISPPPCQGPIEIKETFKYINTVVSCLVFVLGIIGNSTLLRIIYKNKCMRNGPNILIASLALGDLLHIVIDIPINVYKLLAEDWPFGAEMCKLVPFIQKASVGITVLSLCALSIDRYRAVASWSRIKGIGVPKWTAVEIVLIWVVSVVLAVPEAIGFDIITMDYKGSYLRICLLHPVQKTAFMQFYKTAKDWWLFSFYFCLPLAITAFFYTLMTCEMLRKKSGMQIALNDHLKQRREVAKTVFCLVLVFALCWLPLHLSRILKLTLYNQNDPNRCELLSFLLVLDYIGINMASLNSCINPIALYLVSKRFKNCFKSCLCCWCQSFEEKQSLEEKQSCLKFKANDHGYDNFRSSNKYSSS

[5] = target: T2, Endothelin-1 receptor (Homo sapiens, UniProt P25101); experiment: Binding affinity to recombinant human ETA
T2 sequence (P25101 whole entry): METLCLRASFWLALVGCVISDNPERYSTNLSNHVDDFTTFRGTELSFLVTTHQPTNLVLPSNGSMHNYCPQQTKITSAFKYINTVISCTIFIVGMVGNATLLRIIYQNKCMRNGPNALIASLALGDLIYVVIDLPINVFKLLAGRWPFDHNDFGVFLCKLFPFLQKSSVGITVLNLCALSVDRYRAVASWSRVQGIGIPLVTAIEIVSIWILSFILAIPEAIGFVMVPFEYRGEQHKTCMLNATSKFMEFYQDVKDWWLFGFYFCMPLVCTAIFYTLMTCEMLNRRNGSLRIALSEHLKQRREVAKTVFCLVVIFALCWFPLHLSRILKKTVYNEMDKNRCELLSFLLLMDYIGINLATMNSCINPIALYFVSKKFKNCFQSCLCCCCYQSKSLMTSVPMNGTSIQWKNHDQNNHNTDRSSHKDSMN

[6] = Tmax in po dosed human; type: ADME, organism-based; conditions: in vivo
[7] = Half life in po dosed human; type: ADME, organism-based; conditions: in vivo

| IC50 [1] | half-life [3] | Structure (SMILES) | other results |
| --- | --- | --- | --- |
| 4900 nM | – | OCc1ccc(-c2nn(Cc3ccccc3F)c3ccccc23)o1 | – |
| 270 nM | – | Nc1ccnc(-c2nn(Cc3ccccc3F)c3ncccc23)n1 | – |
| – | 12.3 h | CCCOc1ccc(S(=O)(=O)NCCC2CCCN2C)cc1-c1nc2c(CCC)nn(C)c2c(=O)[nH]1 (stereo not drawn) | Tmax [2]: 0.8 h |
| – | 24 h | O=C(O)COC[C@H]1CC[C@H](COC(=O)N(c2ccccc2)c2ccc(Cl)cc2)CC1 | – |
| 10000 nM | – | OCc1ccc(-c2nn(Cc3ccccc3)c3ccccc23)o1 | – |
| 1700 nM | – | OCc1ccc(-c2nn(Cc3ccccc3F)c3ncccc23)o1 | – |
| 304 nM | – | Nc1nc(-c2nn(Cc3ccccc3F)c3ncccc23)ncc1C1CC1 | – |
| – | 24 h | OC(CNc1nc(-c2cc(-c3ccon3)n(Cc3ccccc3F)n2)ncc1F)(C(F)(F)F)C(F)(F)F | – |
| – | – | O=S(=O)(Nc1ncnc(OCCO)c1-c1ccccc1)c1ccc(C(F)(F)F)cc1 | IC50 [4]: 2000 nM; IC50 [5]: 18000 nM |
| – | 17.5 h | CN1CC(=O)N2[C@H](c3ccc4c(c3)OCO4)c3[nH]c4ccccc4c3C[C@@H]2C1=O | – |
| – | 30 h | NC(=O)[C@](O)(CNc1nc(-c2cc(-c3ccon3)n(Cc3ccccc3F)n2)ncc1F)C(F)(F)F [OLINCIGUAT] | Tmax [2]: 2 h |

| Structure (SMILES) | IC50 [1] | half-life [3] | other results |
| --- | --- | --- | --- |
| Nc1nc(-c2nn(Cc3ccccc3F)c3ncccc23)nc(N)c1N1CCOCC1 | 100 nM | – | – |
| COC(=O)N(C)c1c(N)nc(-c2nn(Cc3ccccc3F)c3ncccc23)nc1N [RIOCIGUAT] | 120 nM | – | Tmax [6]: 0.5 h; half-life [7]: 5 h |
